Reference: patent US7727736B2, “Soluble phospholipids for use in clotting factor assays” (The University of North Carolina at Chapel Hill, priority 2003, dated 2010)

Tests used:
[1] = pure C6PS; cited from earlier work
factor Va = target: T1, factor Va (Bos taurus, UniProt Q28107); experiment: Factor Va inactivation by APC; type: biochemical, bovine; set-up: APC cuts three bonds in the heavy chain of factor Va; bovine factor Va (100 nM)
T1 sequence (Q28107 29-741 limits assumed): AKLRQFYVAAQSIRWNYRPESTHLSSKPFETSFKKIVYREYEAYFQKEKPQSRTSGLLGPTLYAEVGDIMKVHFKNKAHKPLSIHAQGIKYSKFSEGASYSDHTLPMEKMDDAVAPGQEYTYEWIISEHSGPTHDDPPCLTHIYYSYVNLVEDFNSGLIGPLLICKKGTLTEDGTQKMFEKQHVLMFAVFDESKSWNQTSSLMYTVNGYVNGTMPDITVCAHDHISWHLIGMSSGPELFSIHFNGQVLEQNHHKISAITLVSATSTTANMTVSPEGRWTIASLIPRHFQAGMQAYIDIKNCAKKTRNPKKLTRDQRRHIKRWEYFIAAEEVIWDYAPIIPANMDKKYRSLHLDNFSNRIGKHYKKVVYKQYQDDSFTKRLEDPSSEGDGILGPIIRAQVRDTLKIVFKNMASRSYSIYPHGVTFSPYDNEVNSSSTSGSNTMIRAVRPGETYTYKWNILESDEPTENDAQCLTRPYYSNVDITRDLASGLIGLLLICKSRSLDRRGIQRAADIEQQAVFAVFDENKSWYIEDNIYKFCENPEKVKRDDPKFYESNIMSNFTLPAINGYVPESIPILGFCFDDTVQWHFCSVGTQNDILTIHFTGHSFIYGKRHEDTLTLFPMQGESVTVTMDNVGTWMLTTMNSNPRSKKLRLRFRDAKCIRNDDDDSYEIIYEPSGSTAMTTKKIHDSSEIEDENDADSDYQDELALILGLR
T1 sequence (Q28107 1565-2211 limits assumed): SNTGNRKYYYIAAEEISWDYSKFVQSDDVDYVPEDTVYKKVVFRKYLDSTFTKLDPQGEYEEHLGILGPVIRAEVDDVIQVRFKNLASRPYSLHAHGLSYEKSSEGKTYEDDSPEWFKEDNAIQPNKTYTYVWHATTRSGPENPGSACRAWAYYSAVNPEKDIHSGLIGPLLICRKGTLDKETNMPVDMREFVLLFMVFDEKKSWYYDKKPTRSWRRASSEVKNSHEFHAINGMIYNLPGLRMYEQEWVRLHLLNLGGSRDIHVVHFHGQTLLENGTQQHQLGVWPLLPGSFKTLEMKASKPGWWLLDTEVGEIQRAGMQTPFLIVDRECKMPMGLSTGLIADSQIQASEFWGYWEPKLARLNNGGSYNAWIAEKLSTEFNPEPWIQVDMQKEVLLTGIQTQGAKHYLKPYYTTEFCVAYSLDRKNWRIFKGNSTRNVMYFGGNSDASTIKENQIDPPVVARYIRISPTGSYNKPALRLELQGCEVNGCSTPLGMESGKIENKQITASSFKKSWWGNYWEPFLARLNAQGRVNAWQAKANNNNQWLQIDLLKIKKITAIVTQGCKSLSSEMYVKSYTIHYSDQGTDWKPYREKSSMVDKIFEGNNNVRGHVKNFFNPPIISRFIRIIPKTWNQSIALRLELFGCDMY
Description: Aliquots of this mixture (10 μL) were added at selected time intervals to a cuvette containing prothrombin (1.4 μM), DAPA (5 μM), PCPS vesicle (50 μM), and factor Xa (10 nM) in a total assay volume of 1 mL. The fluorescence intensity of the thrombin-DAPA was monitored with time. Under these conditions, the rate of thrombin formation is proportional to the rate of DAPA fluorescence increase and is linearly related to the amount of active factor Va. The two isoforms of factor Va, Va1 (Frame A) and Va2 (Frame B) were inactivated at different rates and to different extents by APC depending on the availability of C6PS.
Proteolysis at Arg^506 leads to partial inactivation, but proteolysis at Arg^306 is necessary for full inactivation (Kalafatis & Mann (1993) J. Biol. Chemistry 268 27246; Nicolaes et al., (1995) J. Biol. Chemistry (1995) 270 21158). […] The rate of proteolysis of the bond at Arg^306 increased from undetectable to a value of kcat/KM=3-3.5×10^6 M^−1sec^−1, identical to the rate reported with PS-containing membranes.

## CCCCCC(=O)OC[C@H](COP(=O)(O)OC[C@H](N)C(=O)O)OC(=O)CCCCC [C6PS, 1,2-dicaproyl-sn-glycero-3-phospho-L-serine]
[1]
  monomers in minimal micelle predicted for C6PS: ~200 monomers
Factor Va; 4 μM C6PS
  effect on extent of factor Va inactivation by APC: only a small effect
  effect on rate of factor Va inactivation by APC: no effect
Factor Va; 200 μM C6PS
  factor Va inactivation by APC: complete inactivation
